According to patent US20180185374A1, “INHIBITORS OF MTOR KINASE AS ANTI-VIRAL AGENTS” (THE TRUSTEES OF PRINCETON UNIVERSITY, priority 2009, published 2018):

What was measured:
MCMV = MCMV replication in MEFs, cell-free virus by TCID50; format: cell-based, murine cytomegalovirus; conditions: Torin1 250 nM
γHV68 = γHV68 replication in MEFs, TCID50; format: cell-based, murine gammaherpesvirus 68; conditions: 0.05 PFU/cell, 6 days post infection, rapamycin 20 nM, Torin1 250 nM
HCMV [1] = assay: HCMV DNA accumulation by qPCR; format: cell-based, human cytomegalovirus; conditions: 96 hpi; Torin1 250 nM; 0.05 PFU/cell
Procedure: FIG. 3. […] (A) Rapamycin-resistant mTOR activity is required for the accumulation of an some but not all HCMV proteins. […] Cells were harvested at the indicated times, and the accumulation of the indicated proteins was analyzed by Western blotting. […] At the indicated times DNA was isolated, and viral DNA was quantified by qPCR. Equivalent amounts of DNA were analyzed for each sample, and the results are normalized to the level of actin DNA per sample. […] At the indicated times the amount of UL99 RNA was determined by qPCR, and the results are normalized to the amount of actin RNA in each sample.
Determination of viral DNA and transcript accumulation in infected cells. The accumulation of viral DNA during HCMV infection was monitored by quantitative PCR (qPCR) as described previously (Terhune, et al. (2007) J. Virol. 81:3109-3123).
Briefly, primary human fibroblasts were infected with BADinGFP at a multiplicity of 0.05 PFU/cell. At the indicated times, cells were harvested by scraping them into medium and were stored as frozen cell pellets until analysis. Cell pellets were resuspended in 500 μl of a solution containing 400 mM NaCl, 10 mM Tris (pH 7.5), and 10 mM EDTA. […] For each sample, DNA was quantified by using a NanoDrop spectrophotometer (Thermo Scientific). […]
Viral DNA accumulation was measured by quantitative real-time PCR of fibroblasts treated with rapamycin or Torin1. […]

HCMV [2] = assay: UL99 late transcript level by qPCR; format: cell-based, human cytomegalovirus; conditions: rapamycin 20 nM, Torin1 250 nM; 3 PFU/cell
rpS6 = rpS6 phosphorylation in MCMV-infected MEFs, Western blot; format: cell-based, mouse; conditions: 48 hpi; rapamycin 20 nM, Torin1 250 nM, LY294002 20 μM
Procedure: FIG. 5. […] Fresh serum-free medium containing drugs was added every other day. At the indicated times, cell-free supernatants were harvested, and the amount of virus in the supernatant was quantified by the TCID50 method. Error bars represent the standard errors of the means form two independent experiments performed in duplicate. […] At 48 hpi the phosphorylation state of the indicated mTORC1 targets was analyzed by a Western blot assay by using antibodies to phosphorylated targets (4EBP1-PT^37/46 and rpS6-PS^235/6) and total proteins. The results are representative of three independent experiments.
The identification of the functional roles of proteins in the mTOR signaling pathway has been facilitated by the generation of knockout mouse strains lacking individual mTOR components. For example, the availability of murine embryonic fibroblasts (MEFs) lacking the essential mTORC2 component Rictor led to the definitive identification of mTORC2 as the kinase complex responsible for the complete activation of Akt. We used murine cytomegalovirus (MCMV) and several MEF lines deficient for mTOR signaling pathway components to test for a possible contribution of mTORC2 to rapamycin-resistant phosphorylation events. […] Also as observed for HCMV (FIG. 4A), MCMV infection induced mTORC1 activity, as measured by the increased phosphorylation of rpS6. […]

4EBP1 = 4EBP1 phosphorylation in HSV-1-infected MEFs, Western blot; format: cell-based, mouse; conditions: 3 PFU/cell, 8 hpi
HSV-1 = HSV-1 replication in MEFs, TCID50; format: cell-based, herpes simplex virus type 1; conditions: 72 hpi

In the case of `CCC(=O)N1CCN(c2ccc(-n3c(=O)ccc4cnc5ccc(-c6cnc7ccccc7c6)cc5c43)cc2C(F)(F)F)CC1` [Torin1], the MCMV replication (MCMV; 4EBP1-null MEFs, rapamycin 20 nM, 6 days post infection) is reported as “no longer capable of inhibiting”, the MCMV replication (MCMV; Akt1/Akt2-null MEFs) is reported as “Torin-sensitive” and the MCMV replication (MCMV; Rictor-null MEFs, 6 days post infection) is reported as “effectively inhibited”. For the same compound, the MCMV replication (MCMV; wild-type MEFs, 0.05 PFU/cell, rapamycin 20 nM) was “inhibited MCMV replication”, the γHV68 replication (γHV68) was “inhibited both viruses” and the “reduction of viral DNA accumulation” value (HCMV [1]) was 150 fold. For the same compound, the “levels of UL99 mRNA” value (HCMV [2]) was “decreased the levels of UL99 mRNA”, the “phosphorylation of rpS6 in MCMV-infected MEFs” value (rpS6) was “completely inhibited” and the “phosphorylation of 4EBP1 during HSV-1 infection” value (4EBP1) was “inhibited”. For the same compound, the “production of HSV-1” value (HSV-1; 4EBP1-null MEFs) was “failed to inhibit” and the HSV-1 replication (HSV-1; MEFs, 0.05 PFU/cell, rapamycin 20 nM, Torin1 250 nM) was “inhibited both viruses”.
